Experimental data published in US8795632B2, “Disease animal model for chronic pain” (Astellas Pharma Inc., priority 2008, dated 2014).

Key:
[1] = test system: reserpine repeated administration-induced muscle pressure pain threshold value reduction; assay: Effects of drugs on reserpine repeated administration-induced reduction of muscle pressure pain threshold value; assay type: in vivo, rat; details: for effect on reserpine repeated administration-induced muscle pressure pain threshold value reduction / dose at which the effect was statistically significant by the index of muscle pressure pain threshold value: male rats, pregabalin, duloxetine, diclofenac oral, pramipexole subcutaneous; for effect on reserpine repeated administration-induced muscle pressure pain threshold value reduction: 5 days after final reserpine (1 mg/kg s.c. x 3 days), 30-240 min after drug; for dose at which the effect was statistically significant by the index of muscle pressure pain threshold value: 5 days after final reserpine, two-way analysis of variance and Bonferroni; for efficacy on this disease animal model (reserpine-treated mammal): summary statement, chronic muscle pain and tactile allodynia model
Procedure: Male Sprague-Dawley rats (Japan SLC, Hamamatsu, Japan) were used as the animal. A total of 30 rats were used for each drug. As shown in Example 1, 1 mg/kg of reserpine was repeatedly administered subcutaneously on the back of 24 rats once a day for 3 days to induce reduction of the muscle pressure pain threshold value and skin pain sensation threshold value. The other 6 rats were subjected to the test as a healthy control group without carrying out the reserpine treatment.
All of the evaluations of drug effects were carried out 5 days after the final administration of reserpine.
On the day of drug effect evaluation (5 days after the final administration of reserpine), the muscle pressure pain threshold value and skin pain sensation threshold value were firstly measured on all of the rats (24 reserpine-treated rats and 6 healthy rats). The 24 reserpine-treated rats were divided into 4 groups based on the doses of the test drug, and the muscle pressure pain threshold value and skin pain sensation threshold value were measured after 30, 60, 120 or 240 minutes of the drug or solvent administration. On the 6 healthy rats, the drug administration was not carried out, but only the measurement of muscle pressure pain threshold value and skin pain sensation threshold value was carried out.
All of the measured values were expressed as average value±standard error. Statistical significance test of the measured values between the test drug administration groups and the solvent administration group at each point of time was carried out by a two-way analysis of variance and the Bonferroni method. Probability value (P) of less than 5% was judged as statistically significant (P<0.05 was expressed as * in the graphs).

[2] = test system: reserpine repeated administration-induced skin pain sensation threshold value reduction; assay: Effects of drugs on reserpine repeated administration-induced reduction of skin pain sensation threshold value; assay type: in vivo, rat; details: male rats, pregabalin, diclofenac oral, pramipexole subcutaneous; for effect on reserpine repeated administration-induced skin pain sensation threshold value reduction: 5 days after final reserpine (1 mg/kg s.c. x 3 days), 30-240 min after drug, duloxetine; for dose at which the effect was statistically significant by the index of skin pain sensation threshold value: 5 days after final reserpine, two-way analysis of variance and Bonferroni
fibromyalgia patients = details: cited from earlier work; for pain symptom score of fibromyalgia patients in comparison with the placebo group: Non-patent References 7 to 9; for effect in the treatment of fibromyalgia patients (clinical trial): literature clinical trials

SMILES	effect on reserpine repeated administration-induced muscle pressure pain threshold value reduction [1]	dose at which the effect was statistically significant by the index of muscle pressure pain threshold value [1] [mg/kg]	efficacy on this disease animal model (reserpine-treated mammal) [1]	effect on reserpine repeated administration-induced skin pain sensation threshold value reduction [2]	dose at which the effect was statistically significant by the index of skin pain sensation threshold value [2] [mg/kg]	pain symptom score of fibromyalgia patients in comparison with the placebo group (fibromyalgia patients)	effect in the treatment of fibromyalgia patients (clinical trial) (fibromyalgia patients)
O=C(O)Cc1ccccc1Nc1c(Cl)cccc1Cl [diclofenac]	did not recover	> 10	not effective	did not recover	> 10	–	–
CNCC[C@H](Oc1cccc2ccccc12)c1cccs1 [duloxetine]	statistically significantly recovered	30	effective	showed a tendency to recover the reserpine repeated administration-induced skin pain sensation pain threshold value reduction but was not statistically significant	–	alleviates the pain symptom score of fibromyalgia patients statistically significantly	usefulness has been proved
CC(C)Cc1ccc(C(C)C(=O)O)cc1 (stereo not shown) [ibuprofen]	–	–	–	–	–	–	do not have a significant effect
COc1ccc2cc([C@H](C)C(=O)O)ccc2c1 [naproxen]	–	–	–	–	–	–	do not have a significant effect
CC(C)C[C@H](CN)CC(=O)O [pregabalin]	dose-dependently recovered	–	effective	dose-dependently recovered	30	alleviates the pain symptom score of fibromyalgia patients statistically significantly	usefulness has been proved
